Results: paper PMC11435058, “Synthesis of New Thiazole-Privileged Chalcones as Tubulin Polymerization Inhibitors with Potential Anticancer Activities” (Pharmaceuticals, 2024)

Legend:
HT-29 = system: HT-29; parameters: method as in doi:10.1080/00397911.2021.1884262; conditions: HT-29 colorectal cancer cells; cited from earlier work
HCT-116 = system: HCT-116; parameters: method as in doi:10.1080/00397911.2021.1884262; conditions: HCT-116 colorectal cancer cells; cited from earlier work
Lovo = system: Lovo; parameters: method as in doi:10.1080/00397911.2021.1884262; conditions: Lovo colorectal cancer cells; cited from earlier work
tubulin = experiment: In vitro tubulin polymerization inhibition assay; assay type: biochemical; conditions: 4 mg/mL tubulin, 37°C, absorbance at 340 nm
Experimental: 4.2.2. In Vitro Tubulin Polymerization Inhibition Assay.
2p, and the reference drug CD -4) with the microtubule system. Specifically, the in vitro inhibition of tubulin polymerization was evaluated for these compounds. The standard tubulin polymerization reaction was carried out, containing 100 μL of 4 mg/mL tubulin in a buffer solution of 80 mM PIPES (pH 6.9), 0.5 mM EGTA, 2 mM MgCl2, and 1 mM GTP. Polymerization was initiated by incubating the reaction […]
Under these conditions, polymerization typically reaches a maximum absorbance of […]
growth, and steady state. In this experimental set up, an absorbance of 0.1 at 340 nm corresponds to approximately 1 mg/mL of polymerized tubulin, meaning that around […]
40% of the tubulin is polymerized, allowing for the detection of both enhancers and inhibitors of polymerization. The inhibitory effect of each compound on tubulin polymerization was quantified by determining the IC50 values, which were reported as the mean ± standard deviation from three independent experiments. […]

EKVX = experiment: NCI-60 anticancer screen (SRB; single dose and five doses); conditions: Homo sapiens
COLO 205 = experiment: as above; conditions: Homo sapiens
HCC-2998 = experiment: as above
HT29 = experiment: as above; conditions: Homo sapiens
SNB-75 = experiment: as above
SK-MEL-28 = experiment: as above; conditions: Homo sapiens
UACC-62 = experiment: as above; conditions: Homo sapiens
IGROV1 = experiment: as above; conditions: Homo sapiens
OVCAR-4 = experiment: as above; conditions: Homo sapiens
OVCAR-5 = experiment: as above; conditions: Homo sapiens
SK-OV-3 = experiment: as above; conditions: Homo sapiens
786-0 = experiment: as above; conditions: Homo sapiens
CAKI-1 = experiment: as above; conditions: Homo sapiens
TK-10 = experiment: as above; conditions: Homo sapiens
UO-31 = experiment: as above; conditions: Homo sapiens
DU-145 = experiment: as above; conditions: Homo sapiens
HS 578T = experiment: as above; conditions: Homo sapiens
BT-549 = experiment: as above; conditions: Homo sapiens
T-47D = experiment: as above; conditions: Homo sapiens, T47D

Cc1nc(-c2ccc(C(F)(F)F)cc2)sc1C(=O)/C=C/c1ccc(C(=O)O)cc1 [V]
IC50 (HT-29): 7.94 µM | IC50 (HCT-116): 3.12 µM | IC50 (Lovo): 2.21 µM

COc1ccc(/C=C\c2cc(OC)c(OC)c(OC)c2)cc1O [CA-4, Combretastatin-A4, reference compound]
IC50 (tubulin): […] | IC50 (tubulin; listed as Combretastatin-A4 (CA-4)): […] | GI50 (EKVX): 0.36 µM | CC50 (EKVX; read-out: LC50): > 100 µM | IC (TGI) (EKVX; read-out: TGI): 82 µM | GI50 (COLO 205; COLO 205): 2.49 µM | CC50 (COLO 205; COLO 205, read-out: LC50): > 100 µM | IC (TGI) (COLO 205; COLO 205, read-out: TGI): 43.2 µM | GI50 (HCC-2998; Homo sapiens, HCC 2998): 0.05 µM | CC50 (HCC-2998; Homo sapiens, HCC 2998, read-out: LC50): 26.9 µM | TGI (HCC-2998; five-dose, Colon Cancer HCC-2998): 1.22 µM | GI50 (HT29; HT-29): 0.66 µM | CC50 (HT29; HT-29, read-out: LC50): 38.7 µM | IC (TGI) (HT29; HT-29, read-out: TGI): 5.51 µM | GI50 (SNB-75; Homo sapiens, SNB-75): 0.83 µM | CC50 (SNB-75; Homo sapiens, SNB-75, read-out: LC50): 82.4 µM | TGI (SNB-75; five-dose, CNS Cancer SNB-75): 24.72 µM | GI50 (SK-MEL-28; SK-MEL-28): 3.16 µM | CC50 (SK-MEL-28; SK-MEL-28, read-out: LC50): 90.8 µM | IC (TGI) (SK-MEL-28; SK-MEL-28, read-out: TGI): 82.4 µM | GI50 (UACC-62; UACC-62): 0.01 µM | IC (TGI) (UACC-62; UACC-62, read-out: TGI): 80.5 µM | GI50 (IGROV1; IGROV-1): 0.06 µM | CC50 (IGROV1; IGROV-1, read-out: LC50): > 100 µM | IC (TGI) (IGROV1; IGROV-1, read-out: TGI): 63.5 µM | GI50 (OVCAR-4; OVCAR-4): 0.26 µM | CC50 (OVCAR-4; OVCAR-4, read-out: LC50): 20.2 µM | IC (TGI) (OVCAR-4; OVCAR-4, read-out: TGI): 0.16 µM | GI50 (OVCAR-5; OVCAR-5): 0.18 µM | CC50 (OVCAR-5; OVCAR-5, read-out: LC50): > 100 µM | IC (TGI) (OVCAR-5; OVCAR-5, read-out: TGI): 83.2 µM | GI50 (SK-OV-3; SK-OV-3): 28.4 µM | CC50 (SK-OV-3; SK-OV-3, read-out: LC50): 89.5 µM | IC (TGI) (SK-OV-3; SK-OV-3, read-out: TGI): 0.36 µM | GI50 (786-0; 786-0): 0.02 µM | CC50 (786-0; 786-0, read-out: LC50): > 100 µM | IC (TGI) (786-0; 786-0, read-out: TGI): > 100 µM | GI50 (CAKI-1; CAKI-1): 0.04 µM | CC50 (CAKI-1; CAKI-1, read-out: LC50): 97 µM | IC (TGI) (CAKI-1; CAKI-1, read-out: TGI): 8.22 µM | GI50 (TK-10; TK-10): 0.57 µM | CC50 (TK-10; TK-10, read-out: LC50): > 100 µM | IC (TGI) (TK-10; TK-10, read-out: TGI): 11.5 µM | GI50 (UO-31; UO-31): 0.19 µM | IC (TGI) (UO-31; UO-31, read-out: TGI): 4.16 µM | GI50 (DU-145; DU-145): 0.01 µM | CC50 (DU-145; DU-145, read-out: LC50): > 100 µM | IC (TGI) (DU-145; DU-145, read-out: TGI): 78.9 µM | GI50 (HS 578T): 0.15 µM | CC50 (HS 578T; read-out: LC50): > 100 µM | IC (TGI) (HS 578T; read-out: TGI): 0.22 µM | GI50 (BT-549; BT-549): 0.01 µM | IC (TGI) (BT-549; BT-549, read-out: TGI): 8.09 µM | GI50 (T-47D): 48 µM | CC50 (T-47D; read-out: LC50): > 100 µM | IC (TGI) (T-47D; read-out: TGI): 2.04 µM
